According to patent publication US20230245725A1, “Means and Methods for the Prediction of Amyloid Core Sequences” (VIB VZW, priority 2020, published 2023):
Where two headings read alike, the source gives them in different places.

Tests used:
[1] = Transmission electron microscopy of peptide fibrils; format: physicochemical
Text: (§1) In the interest of improving the current description of the familiar amyloidogenic protein dataset, we selected and synthesised a subset of 96 peptides corresponding to strong aggregation prone regions identified in these proteins by Cordax. Apart of prediction strength, the peptide screen was also selectively constructed to ensure broad sequence variability and a wide distribution on the proteins of the dataset, with a preference for longer entries defined by inadequate previous characterisation. Peptide sequences were cross-checked and filtered to exclude overlapping sequences with previously identified amyloid regions and WALTZ-DB (see Table 2). The remaining selection of 96 peptides were synthesized using standard solid phase synthesis and their amyloid-forming properties were initially examined using Thioflavin-T (Th-T) or pFTAA binding, following rotating incubation for 5 days at room temperature. The binding assays are complementary, as Th-T and pFTAA are opposingly charged molecules, which increases the amyloid identification rate by overcoming cases of dye-specific failure to bind to amyloid surfaces based on charge repulsion. Under these conditions, 66 peptides successfully bind the specific dyes (FIGS. 3a & 3b) by forming fibrils with typical amyloid morphologies and properties that were verified using transmission electron microscopy (FIG. 3c) and Congo red staining for selected cases (FIG. 3d). As these dyes are known to yield false negatives, in particular for short peptides, all dye-negative peptides were further investigated using electron microscopy. During this scan, we recovered 19 additional sequences that were capable of forming sparse amyloid-like fibrils with shorter lengths (see FIG. 8).
(§2) Peptide solutions were incubated for 5 days at room temperature in order to form mature amyloid-like fibrils. Suspensions (5 μL) of each peptide solution were added on 400-mesh carbon-coated copper grids (Agar Scientific Ltd., England), following a glow-discharging step of 30 s to improve sample adsorption. Grids were washed with milli-Q water and negatively stained using uranyl acetate (2% w/v in milli-Q water). Grids were examined with a JEM-1400 120 kV transmission electron microscope (JEOL, Japan), operated at […].

[2] = Thioflavin-T binding assay of synthetic peptides; format: physicochemical; details: 200 μM peptide, rotation 5 days, room temperature; Th-T 25 μM
Text: as §1
(§3) Peptides derived from the Cordax validation set were synthesized using an Intavis Multipep RSi solid phase peptide synthesis robot. Peptide purity (>90%) was evaluated using RP-HPLC purification protocols and peptides were stored as ether precipitates (−20° C.). Peptide stocks were initially treated with 1,1,1,3,3,3-hexafluoro-isopropanol (HFIP) (Merck), then dissolved in traces of dimethyl sulfoxide (DMSO) (Merck) (<5%), filtered through 0.2 μm filters and finally in milli-Q water to reach a final concentration of 200 μM or up to 1 mM for dye-negative peptides. Dithiothreitol (DTT) (1 mM) was included in solutions of peptides spanning cysteine or methionine residues. All peptides were incubated at room temperature for a period of 5 days on a rotating wheel.
(§4) Amyloid aggregation was monitored using fluorescent spectroscopy binding assays. Th-T (Sigma) or pFTAA (Ebba Biotech AB) was added in half-area black 96-well microplates (Corning, USA) at a final concentration of 25 μM and 0.5 μM, respectively. Fluorescence intensity was measured in replicates (n=6) using a PolarStar Optima and a FluoStar Omega plate reader (BMG Labtech, Germany), equipped with an excitation filter at 440 nm and emission filters at 480 nm and 510 nm, respectively.

[3] = pFTAA binding assay of synthetic peptides; format: physicochemical; details: 200 μM peptide, rotation 5 days, room temperature; pFTAA 0.5 μM
Text: as §1, §3, §4

[4] = Amyloid-forming properties of the peptide screen (overall call from Th-T, pFTAA, TEM); format: physicochemical
Text: as §1, with “8). […]” for “8).”
as §3, §4, §2

Apo-AI = target: T1, Apo-AI (Homo sapiens, UniProt P02647); assay: Th-T kinetics and endpoint fluorescence analysis of ApoA-I APR variant peptides; format: biochemical; details: triplicate
T1 construct: Endpoint fluorescence analysis; made in house; host or cells: solid phase peptide synthesis (no expression host)
Method: The Th-T kinetics (see FIGS. 12A and 12B) and the endpoint fluorescence analysis (see FIG. 11) were performed in triplicate for the peptides depicted in Table 5.
The Th-T kinetics (see FIGS. 13A and 13B) and the endpoint fluorescence analysis (see FIG. 11) were performed in triplicate for the peptides depicted in Table 6.
as §4

[5] = amyloid-like fibrils after 5 days at room temperature

Substance | TEM [1, 5] | Th-T Binding [2] | pFTAA Binding [3] | Amyloid ([4]; overall amyloid-forming call) | also measured
AAYLWV | ● | ● | ● | ● | –
AEIEIE | ● | ● | ● | ● | –
ASLTIL | ● | ● | ● | ● | –
FVIEEV | ● | ● | ● | ● | –
GVIHYI | ● | – | – | ● | –
GYLTIR | ● | – | – | ● | –
GYTLFS | ● | – | – | ● | –
IFTVQL | ● | ● | ● | ● | –
IGINIK | ● | – | – | ● | –
IGYNIK | ● | – | – | ● | –
IIYNWQ | ● | ● | ● | ● | –
ILLLFE | ● | ● | ● | ● | –
IQIHHY | ● | – | – | ● | –
IQVYSR | ● | ● | ● | ● | –
LAIVYV (Aggregation inducer) [SEQ ID NO: 182, candidate aggregation inducing variant of ApoA-I APR] | – | – | – | – | induce the aggregation of Apo-AI (Apo-AI): most performant peptides which can induce the aggregation of Apo-AI
LLFKDS | ● | – | – | ● | –
LLTVYV (Aggregation inducer) [SEQ ID NO: 178, candidate aggregation inducing variant of ApoA-I APR] | – | – | – | – | induce the aggregation of Apo-AI (Apo-AI): most performant peptides which can induce the aggregation of Apo-AI
LLVYNK | ● | – | – | ● | –
LNSVFK | ● | – | – | ● | –
LWTVYV (Capping peptide) [SEQ ID NO: 175, candidate capping peptide variant of ApoA-I APR] | – | – | – | – | capping peptide: prevent the aggregation of Apo-AI (Apo-AI): most performant capping peptides

Substance | TEM [1, 5] | Th-T Binding [2] | pFTAA Binding [3] | Amyloid ([4]; overall amyloid-forming call) | also measured
LYHGQT | ● | – | – | ● | –
LYHLVT | ● | – | – | ● | –
LYTVYV (Capping peptide) [SEQ ID NO: 176, candidate capping peptide variant of ApoA-I APR] | – | – | – | – | capping peptide: prevent the aggregation of Apo-AI (Apo-AI): most performant capping peptides
MDKVER | ● | – | – | ● | –
NDAFVL | ● | ● | ● | ● | –
NFSIRY | ● | ● | ● | ● | –
QVFVWV | ● | ● | ● | ● | –
QVYYRP | – | – | – | – | TEM [1]: ●; Amyloid [4]: ●
SNFLRA | ● | – | – | ● | –
SQFIKL | ● | – | – | ● | –
STVISY | ● | ● | ● | ● | –
TLFTMD | ● | – | – | ● | –
VHIVKL | ● | – | ● | ● | –
VNFSEF | ● | ● | ● | ● | –
VYVDVL | ● | ● | ● | ● | –
YDLHYW | ● | ● | ● | ● | –
YFHARG | ● | – | – | ● | –
YIILYN | ● | ● | ● | ● | –
YQLVLQ | ● | ● | ● | ● | –
